Data reported in patent US7465716B2, “Targeted drug delivery with a hyaluronan ligand” (The Regents of the University of California, priority 1999, dated 2008).

How the values were obtained:
B16F10 lung tumors = test: Chemotherapy of mice with B16F10 lung tumors (Table 4); type: in vivo, C57/BL6 mice; settings: treated day 6, counted day 14, N = 9; HAL-dox and POPG-dox at 8 mg/kg
Procedure: The drug delivery systems of this invention can be tested in the B16F10 lung metastases model. The number of B16F10 tumor nodules was enumerated in the lung of syngeneic C57/BL6 mice 14days after intravenouss injection into the tail vein of 1×10^5, 3×10^5 and 1×10^6 B16F10 cells/mouse in a volume of 0.2 mL PBS. These cell numbers were used because they span the range reported to give a countable number of nodules in previous investigations. The animals were sacrificed and the lungs were removed 14 days post inoculation of B16F10 cells, and then fixed in Bouin's solution. The visible tumor nodules were assessed and counted under dissecting microscope. N=9 per group. The dose of 3×10^5 cells/mouse yielded a suitable number of nodules to provide an adequate statistical analysis. […] The distribution of hyaluronanliposomes in B16F10 tumorial mice was measured on day 14 after innoculation. […] The animals (n=7) were sacrificed 3 hours after injection, the organs removed, the lungs were fixed in Bouin's solution and the radioactivity in each organ determined by gamma scintillation spectroscopy (Table 3).
The chemotherapeutic efficacy of doxorubicin delivered in various forms in the B16F10 lung tumor model was compared by counting the nodules on day 14 after innoculation of mice with B16F10. […] The animals were sacrificed and tumor nodules: counted on day 14. […]

[1] = tested on: B16-F10 tumor nodules in the lung; test: Effect of liposome composition on B16-F10 lung tumor nodules (Table 5); type: in vivo, C57/BI6 mice; settings: Doxorubicin 3 mg/kg on day 6, 10 mice/group
Procedure: As shown above, the presence of the targeting hyaluronan lipid, the type of lipid anchor that the hyaluronan was attached to and the lipid composition of the targeted liposomes influenced the anti-tumor effect. In this example, doxorubicin was encapsulated in liposomes of different compositions (described below in the liposome preparation) and injected into C57/BI6 mice at a dose of 3 mg/kg on day 6 after the mice had received the B16-F10 tumor as described above.
A specific, non-limiting example of doxorubicin loaded lipsome preparation involves thin lipid film hydration followed by sonication and extrusion. Briefly, the lipid components were weighed and dissolved in chloroform at the desired molar ratio(POPC:Chol:HA4-POPE:aT 60:40:3:0.1; POPC:Chol:POPG:aT 60:40:9:0.1; HSPC:Chol:PEG-DSPE:aT 56.2:38.3:5.3:0.1; HSPC:Chol:DPPG:aT 56.2:38.3:5.3:0.1; HSPC:Chol:HA4-DPPE:aT 56.2:38.3:5.3:0.1). […] Phospholipid concentration was determined by a phosphorous assay. DOX concentrations were determined by measurement of absorbance at 480 nm (using a molar coefficient=12,500) after solubilization of the liposomes in 90% isopropyl alcohol containing 0.075 M HCl. […] For both POPC and HSPC liposomes, mean vesicle diameter as measured by dynamic light scattering using the multimodal program was 120-150 nm (SD<35% of the mean) with a monodisperse particle size distribution. […]

CV-1 cells = test: Chemosensitivity assay (SRB staining), CV-1 cells; type: cell-based, monkey; settings: compared with B16F10 cells / free DOX
Text: FIGS. 5A and 5B show the DOX dose dependence cytotoxicity determined after treatment of B16F10 and CV-1 cells with non-encapsulated DOX and DOX-loaded HAL. […] To examine the specificity of the HAL we treated CV-1 cells with the three formulations. CV-1 cells express a very low level of CD44. […] Furthermore, the cytotoxicity of both the HAL and POPG liposomes was. similar, confirming the low interaction of the liposomes with CV-1 cells.
The cytotoxic effect of free DOX or Liposomes-encapsulated DOX on the cells was assayed colorimetrically by the sulforhodamine B (SRB) staining. A sample containing 16,000 B16F10 or 25,000 CV-1 cells (from an exponentially growing culture) in 100 μl aliquots were plated onto 96-well flat bottom microtiter plates. The culture plates were incubated for 24 hours at 37° C. and 5% CO2 and then the medium in each well was replaced with 100 μl serum-free and antibiotic-free medium containing various concentration of free or liposome-encapsulated DOX. For each 10-fold increase in drug concentration, four drug concentration levels were tested. […] The cultures were incubated at 4° C. for 1 h and then washed and analyzed for SRB staining of the monolayers as described. The measurement of the absorbance of the SRB at 564 nm in the monolayers was determined by an Optimax microplate reader (Molecular Devices, Sunnyvale, Calif.). […]

[2] = tested on: B16-F10 tumor nodules in the lung; test: Dose response on B16-F10 lung tumor nodules (Table 6); type: in vivo, C57/BI6 mice
Procedure: In this experiment groups of 10 animals were inoculated with the tumor cells on day zero and treated with the various formulations on day 6 as described above. To keep the lipid concentration constant as the dose of liposome encapsulated drug was reduced, HAL-Dox formulations were diluted with empty DSPG liposome (HSPC:Chol:DSPG 60:40:9 mole ration) to maintain the total lipid concentration at 1 micromole.

[3] = 0.3 mg/kg, HAL-Dox = HAL-DPPE encapsulated Dox
[4] = 1 mg/kg, HAL-Dox = HAL-DPPE encapsulated Dox
[5] = 3 mg/kg, HAL-Dox = HAL-DPPE encapsulated Dox
[6] = 10 mg/kg, treated day 6, groups of 10

COc1cccc2c1C(=O)c1c(O)c3c(c(O)c1C2=O)C[C@@](O)(C(=O)CO)C[C@@H]3O[C@H]1C[C@H](N)[C@H](O)[C@H](C)O1 [free DOX, Doxorubicin]
# nodules Mean (B16F10 lung tumors): 56.11 ± 49.48
# nodules Median (B16F10 lung tumors): 45
# nodules Mean [1]: 171.60 ± 71.79
# nodules Median [1]: 179
cytotoxicity to CV-1 cells (in words) (CV-1 cells): significantly lower
# nodules Mean [2, 3]: 248.1 ± 56.9
# nodules Median [2, 3]: 250.5
# nodules Mean [2, 4]: 265.9 ± 34.5
# nodules Median [2, 4]: 277
# nodules Mean [2, 5]: 208.2 ± 82.1
# nodules Median [2, 5]: 191
# nodules Mean [2, 6]: 157.9 ± 70.6
# nodules Median [2, 6]: 151
